Measurements taken from PubChem BioAssay (NCI).
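48-hour exposure; five concentrations; linearly interpolated endpoints. The concentration for full growth arrest is given as TGI.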

Experiments:
Assay in all cases: NCI anticancer screen, dose series, 48 h
OVCAR-3 ovarian = test system: OVCAR-3 ovarian
IGROV1 ovarian = test system: IGROV1 ovarian
SK-MEL-28 melanoma = test system: SK-MEL-28 melanoma
SK-MEL-2 melanoma = test system: SK-MEL-2 melanoma
NCI-H23 lung = test system: NCI-H23 lung
SNB-75 CNS = test system: SNB-75 CNS
SK-MEL-5 melanoma = test system: SK-MEL-5 melanoma
OVCAR-4 ovarian = test system: OVCAR-4 ovarian
KM12 colon = test system: KM12 colon
COLO 205 colon = test system: COLO 205 colon
CCRF-CEM leukemia = test system: CCRF-CEM leukemia
T-47D breast = test system: T-47D breast
SF-295 CNS = test system: SF-295 CNS
MOLT-4 leukemia = test system: MOLT-4 leukemia
SF-539 CNS = test system: SF-539 CNS
HCT-15 colon = test system: HCT-15 colon
K-562 leukemia = test system: K-562 leukemia
RPMI-8226 leukemia = test system: RPMI-8226 leukemia
SN12C renal = test system: SN12C renal
BT-549 breast = test system: BT-549 breast
786-0 renal = test system: 786-0 renal
PC-3 prostate = test system: PC-3 prostate
EKVX NSCLC = test system: EKVX NSCLC
ACHN renal = test system: ACHN renal
HCT-116 colon = test system: HCT-116 colon
RXF 393 renal = test system: RXF 393 renal
NCI/ADR-RES ovarian = test system: NCI/ADR-RES ovarian
HT29 colon = test system: HT29 colon
NCI-H460 lung = test system: NCI-H460 lung
HL-60(TB) leukemia = test system: HL-60(TB) leukemia
MALME-3M melanoma = test system: MALME-3M melanoma
MCF7 breast = test system: MCF7 breast
SK-OV-3 ovarian = test system: SK-OV-3 ovarian
M14 melanoma = test system: M14 melanoma
U251 CNS = test system: U251 CNS
A549 NSCLC = test system: A549 NSCLC
HOP-62 NSCLC = test system: HOP-62 NSCLC
SNB-19 CNS = test system: SNB-19 CNS
DU-145 prostate = test system: DU-145 prostate
HS 578T breast = test system: HS 578T breast
CAKI-1 renal = test system: CAKI-1 renal
HCC-2998 colon = test system: HCC-2998 colon
TK-10 renal = test system: TK-10 renal
OVCAR-5 ovarian = test system: OVCAR-5 ovarian
LOX IMVI melanoma = test system: LOX IMVI melanoma
SW-620 colon = test system: SW-620 colon
UACC-257 melanoma = test system: UACC-257 melanoma
NCI-H522 lung = test system: NCI-H522 lung
OVCAR-8 ovarian = test system: OVCAR-8 ovarian
UACC-62 melanoma = test system: UACC-62 melanoma
NCI-H226 lung = test system: NCI-H226 lung
MDA-MB-435 = test system: MDA-MB-435
A498 renal = test system: A498 renal
SF-268 CNS = test system: SF-268 CNS
MDA-N = test system: MDA-N
MDA-MB-231 breast = test system: MDA-MB-231 breast

Measured: TGI

CCOC(=O)c1c(-c2ccccc2)c(OC)cn1C
> 10 µM: all assays above
